These are literature values, as cited in US11957711B2 (priority 2021, dated 2024).

The test system of data set [1] is germs.
The conditions of data set [2]: parts per million in gas; gas generated from HTH and carbon dioxide.

For the compound `OCl` [HCLO, Hypochlorous acid], in data set [1], the “time to kill the germs” value is recorded as “a few seconds”.

As for `ClOCl` [CL2O, Dichlorine monoxide], the Solubility in water is recorded as 143 g/100 g. In addition, the maximum allowable concentration result in data set [2] was “around 1.25 ppm”. The “Solubility in other solvent” value (CCL4) is “soluble in CCL4”.
